Assay results from a melting point compilation (Tetko et al.).

| SMILES | melting point [°C] |
| --- | --- |
| COC(=O)c1cnc(SCC(=O)c2ccc(Cl)cc2)n1C | 126 to 127 |
| O=C(O)C(=Cc1cccc([N+](=O)[O-])c1)c1cccc([N+](=O)[O-])c1 | 150 to 160 |
| CC=Cc1ccc(OCC)c(O)c1 | 87 |
| O=C(c1cccs1)c1nn2c(nc(=O)c3ccccc32)s1 | 236 |
| O=C(Cl)c1ccccc1[N+](=O)[O-] | 17 to 20 |
| FCC(F)(F)C(F)F | -82 |
| O=C(O)c1ccccc1OC(F)(F)F | 79 |
| Cc1cc2c(c(=O)n1Cc1ccccc1)C(c1ccccc1)C(C#N)=C(N)O2 (stereo not drawn) | 275 to 277 |
| c1ccc(SCCSc2ccccc2)cc1 | 69 |
| O=[N+]([O-])c1cc([N+](=O)[O-])c(/C=C/c2ccccc2)cc1/C=C/c1ccccc1 | 193 |
| CS(=O)(=O)n1ccnc1 | 86 to 88 |
| CC1CC=CC2(O1)OC1CC(=O)OC1C1(O)C(=O)c3ccccc3C(=O)C21O (stereo not drawn) | 238 |
| NCC(O)C(O)C(O)C(O)CO (stereo not drawn) | 127 |
| CC(C)n1c2c(c(=O)[nH]c1=O)CCCC2 | 229 to 230 |
| NCCCN1CCOCC1 | -15 |
| NNC(=S)Nc1ccc(C(F)(F)F)cc1 | 167 |
| COC(=O)C1c2ccccc2C(=O)OC1c1ccc([N+](=O)[O-])cc1 (stereo not drawn) | 134 |
| Cc1ccc(/C=C2\CCC/C(=C\c3ccc(C)s3)C2=O)s1 | 166 |
| Cc1ccncc1C(=O)NN | 177 |
| O=C(O)[C@H]1CC[C@H](C(=O)O)CC1 | 312 |
| Cc1ccc(N)c(Cl)n1 | 88 to 91 |
| Clc1ncccc1I | 95 |
| BrC(=C(c1ccccc1)c1ccccc1)c1ccccc1 | 115 to 117 |
| O=C(O)c1c(F)c(F)cc(F)c1F | 151 |

| SMILES | melting point [°C] |
| --- | --- |
| CCCCCCc1ccccc1 | -61 |
| COc1cc(OC(C)=O)c2c(=O)c(O[C@@H]3O[C@H](COC(C)=O)[C@H](OC(C)=O)[C@H](OC(C)=O)[C@@H]3O[C@@H]3O[C@H](C)[C@H](OC(C)=O)[C@H](OC(C)=O)[C@@H]3OC(C)=O)c(-c3ccc(OC(C)=O)cc3)oc2c1 | 118 to 120 |
| CCCCCCCCCCCCCC(=O)Oc1ccc(N=Cc2cccnc2)cc1 | 82.7 |
| O=C1OC(=O)C2=C1Cc1ccccc1C2 | 241 to 247 |
| COc1ccc(Cl)cc1N=C=O | 60 to 62 |
| O=c1cc2oc3cc(O)c(O)cc3c(-c3ccccc3)c-2cc1O | 300 |
| CS(=O)(=O)CC(=O)O | 117 |
| CN(C)c1ccc(C(O)C2C(=O)N(c3ccccc3)N=C2C(F)(F)F)cc1 (stereo not drawn) | 171 |
| COc1cc(O)c(C(=O)c2ccccc2)c(O)c1 | 130 |
| COc1ccc(C2Nn3c(nnc3-c3cccc([N+](=O)[O-])c3)S2)cc1 (stereo not drawn) | 206 |
| COC(=O)CC(C)CCC1C(C)(O)CCC2C(C)(C)CCCC21C (stereo not drawn) | 68.3 to 71.3 |
| O=C(Cl)c1ccc(Cl)c(Cl)c1 | 32 |
| Cc1nc(N)nc(O)n1 | 300 |
| NC(=S)COc1cccc(Cl)c1 | 122 to 124 |
| OC1C2CC3CC(C2)CC1C3 (stereo not drawn) | 301 |
| COc1ccc(C(=O)c2cc(OC)c(OC)cc2[N+](=O)[O-])cc1 | 147 |
| O=C(c1ccc(O)c(O)c1)c1c(O)cc(O)cc1O | 222 |
| N#CC1C(=S)NC2(C(=O)Nc3ccccc32)C2=C1CCCC2 (stereo not drawn) | 222 |
| Brc1ccc(-c2cccnc2)nc1 | 77 |
| C#CC1(O)CCC2C3CCc4cc(OC5CCCC5)ccc4C3CCC21C (stereo not drawn) | 108 |
| CCCCOC(=O)C(=O)OCCCC | -29 |
| COc1ccccc1C(=O)Oc1ccc(/C=C/C(=O)c2ccccc2)cc1 | 115 |
| Nc1nc2ccc([N+](=O)[O-])cc2s1 | 247 to 249 |
| ON=Cc1ccc(Br)cc1 | 118 |
